{"source": "patent US20120213714A1", "about": "“Method and compositions as an adjunct for the prevention and treatment of periodontal disease” (priority 2011, published 2012)", "tested_on": "Porphyromonas gingivalis", "assay": "Porphyromonas gingivalis overnight culture, colony count on blood agar vs control", "type": "cell-based", "experimental": "After the overnight culture, the medium was diluted 1:10000 times, 5 μl of the diluted culture was applied to blood agar plate and cultured overnight. Calculated the number of colonies on the plates and compared with the control group to obtain the percentage of inhibition."}
{"smiles": "CCCCC/C=C\\C/C=C\\C/C=C\\CCCCC(=O)O", "note": "[omega-6 fatty acids (GLA), γ-linolenic acid]", "values": [{"measurement": "IC50", "setting": "Porphyromonas gingivalis, overnight culture at 37° C, colonies counted vs control, read-out: IC50 / final concentration inhibiting 50% of Porphyromonas gingivalis growth", "result": "~5", "unit": "µg/mL"}, {"measurement": "inhibition of growth of Porphyromonas gingivalis", "setting": "final concentration of 1 μg/ml", "result": "significantly inhibit the growth"}]}
